The subject of assay [1] is Candida albicans. Nature of the assay: Antimicrobial activity against Candida albicans at 20 ug after 24 hr by disk diffusion method. The format is functional, organism-based. (In general: A growth-free zone around the sample is the usual read-out of agar diffusion tests.)
Assay [2] is described as follows: Inhibition of xanthine oxidase assessed as conversion of xanthine to uric acid incubated for 3 min.
The subject of assay [3] is Candida albicans. Nature of the assay: Antimicrobial activity against Candida albicans at 100 ug after 24 hr by disk diffusion method. The format is functional. To be noted: read-out: DIZ.
For assay [4], the system named is Corynebacterium accolens. The assay is described as follows: Antimicrobial activity against Corynebacterium accolens at 100 ug after 24 hr by disk diffusion method. The format is functional. The note with it: read-out: DIZ.
Assay [5] has as its system Staphylococcus aureus. Nature of the assay: Antimicrobial activity against Staphylococcus aureus at 100 ug after 24 hr by disk diffusion method. The format is functional. To be noted: read-out: DIZ.
The test system of assay [6] is Pectobacterium carotovorum. Nature of the assay: Antimicrobial activity against Pectobacterium carotovorum at 100 ug after 24 hr by disk diffusion method. The note with it: read-out: DIZ. The format is functional.
The test system of assay [7] is Corynebacterium accolens. Nature of the assay: Antimicrobial activity against Corynebacterium accolens at 10 ug after 24 hr by disk diffusion method. The format is functional, organism-based.
Assay [8] deals with Staphylococcus aureus. The assay is described as follows: Antimicrobial activity against Staphylococcus aureus at 10 ug after 24 hr by disk diffusion method. The format is functional, organism-based.
The subject of assay [9] is Pectobacterium carotovorum. Nature of the assay: Antimicrobial activity against Pectobacterium carotovorum at 10 ug after 24 hr by disk diffusion method. The format is functional, organism-based.

As for NYSTATIN, in the assay with Candida albicans [1], the inhibition zone (IZ) was found to be 11 mm.

In the case of `O=C(O[C@@H]1O[C@@H]2COC(=O)c3cc(O)c(O)c(O)c3-c3c(cc(Oc4c(C(=O)O)cc(O)c(O)c4O)c(O)c3O)C(=O)O[C@H]([C@H]1O)[C@@H]2O)c1cc(O)c(O)c(O)c1` [MALLOTINIC ACID], in assay [2], the IC50 is greater than 100 µM. Moreover, the zone of inhibition at 100 µg/disc with Candida albicans [3] is 9 mm; in the assay on Corynebacterium accolens [4], 9 mm; in the assay on Staphylococcus aureus [5], 9 mm; in [6] it was 13 mm.

Consider `O=C(O[C@@H]1O[C@@H]2COC(=O)c3cc(O)c(O)c(O)c3-c3c(cc(O)c(O)c3O)C(=O)O[C@H]([C@H]1O)[C@@H]2O)c1cc(O)c(O)c(O)c1` [CORILAGIN], for which the IC50 in assay [2] is greater than 100 µM. Also, the zone of inhibition at 100 µg/disc in the assay with Candida albicans [3] is 12 mm; in the assay with Corynebacterium accolens [4], 12 mm; in the assay with Staphylococcus aureus [5], 12 mm; in assay [6], 20 mm.

`O=C(O)c1cc(O)c(O)c(O)c1` [GALLIC ACID]: the IC50 in assay [2] worked out at 41.7 µM. Further, the zone of inhibition at 100 µg/disc with Candida albicans [3] was found to be 7 mm; in the assay on Corynebacterium accolens [4], 7 mm; in the assay on Staphylococcus aureus [5] it was 7 mm; in [6], 13 mm.

Regarding `O=C(Oc1c(O)cc2c(c1O)-c1c(cc(O)c(O)c1O)C(=O)OC[C@H]1O[C@@H](OC(=O)c3cc(O)c(O)c(O)c3)[C@H](O)[C@@H](OC2=O)[C@@H]1O)c1cc(O)c(O)c(O)c1` [MALLOREPANIN], the IC50 in assay [2] is greater than 100 µM. Further, the zone of inhibition at 100 µg/disc came out at 10 mm with Candida albicans [3], 10 mm with Corynebacterium accolens [4], 10 mm with Staphylococcus aureus [5] and 15 mm in assay [6].

For the molecule `O=c1oc2c(O)c(O)cc3c(=O)oc4c(O)c(O)cc1c4c23` [ELLAGIC ACID], the IC50 in assay [2] was 9.3 µM. In addition, the zone of inhibition at 100 µg/disc with Candida albicans [3] worked out at 10 mm; in the assay on Corynebacterium accolens [4], 12 mm; in the assay with Staphylococcus aureus [5], 0 mm; in assay [6], 15 mm.

In the case of `O=C(O)C[C@@H]1C(=O)O[C@H]2[C@@H]3OC(=O)c4cc(O)c(O)c(O)c4-c4c(cc(O)c(O)c4O)C(=O)OC[C@H]2O[C@@H](OC(=O)c2cc(O)c(O)c(O)c2)[C@@H]3OC(=O)c2cc(O)c(O)c3c2[C@H]1[C@H](O)C(=O)O3` [CHEBULAGIC ACID], the IC50 in [2] worked out at 48 µM. In addition, the zone of inhibition at 100 µg/disc in the assay on Candida albicans [3] worked out at 12 mm; with Corynebacterium accolens [4], 10 mm; in the assay on Staphylococcus aureus [5], 11 mm; in [6], 19 mm.

For `O=c1c(O)c(-c2ccc(O)c(O)c2)oc2cc(O)cc(O)c12` [QUERCETIN], the IC50 in assay [2] came out at 10 µM.

On to `O=c1oc2c(O)c(O[C@@H]3OC[C@@H](O)[C@H](O)[C@H]3O)cc3c(=O)oc4c(O)c(O)cc1c4c23` [ELLAGIC ACID 4-O-XYLOPYRANOSIDE], for which the IC50 in assay [2] was found to be 4.7 µM. The zone of inhibition at 100 µg/disc in the assay on Candida albicans [3] stood at 0 mm; with Corynebacterium accolens [4] it was 0 mm; in the assay with Staphylococcus aureus [5], 0 mm; in assay [6], 12 mm.

Regarding GENTAMICIN SULFATE, the inhibition zone (IZ) in the assay on Corynebacterium accolens [7] is 28 mm; in the assay on Staphylococcus aureus [8] it was 14 mm; in [9], 21 mm.

For orientation: IC50 means the midpoint of a concentration-inhibition curve.
